Measured values from patent publication US20040259942A1, “Modulation of stat activity” (priority 2001, published 2004).

What was measured:
[1] = target: T1, JAK2 (Homo sapiens, UniProt O60674); assay: Serum-induced JAK2 tyrosine phosphorylation (immunoblot); type: cell-based; conditions: BR293 cells; 2 hour time course; AG490 pre-treatment
T1 construct: endogenous in cells; host or cells: BR293
Protocol: (§1) For immunoprecipitation and immunoblotting experiments, cells were grown to confluence in 10 cm dishes and maintained in full medium or starved in serum-free medium overnight before the application of appropriate stimuli. Lysates were prepared in TBSN buffer (50 mM Tris-HCl pH7.5, 150 mM NaCl, 1 mM EDTA, 1% NP-40) supplemented with protease inhibitors (1 mM Na3 VO4, 10 mM Na4P2O7, 10 mM NaF, 5 mM EGTA, 10 mM Benzamidine, 0.2 mM PMSF and 1 μg/ml each of leupeptin, aprotinin, pepstatin). Lysates were cleared by centrifugation at 16,000×g for 10 minutes and used directly for immunoprecipitations or stored at −20° C. for further use.
(§2) Equal amounts of lysates were incubated with the appropriate antibody for 2 hours at 4° C.
(§3) Immune complexes were then allowed to bind to protein A-Sepharose beads for 1 hour at 4° C. and collected by centrifugation. Immunoprecipitates were washed three times in 100 mM Tris-HC1 pH 7.5, 100 nM NaCl, 1 mM EDTA, 0.1 mM PMSF, 0.5% NP-40. Thereafter, samples were taken up in sodium dodecyl sulphate (SDS) loading buffer and boiled for 5 min.
(§4) Samples were separated by electrophoresis through 6% polyacrylamide-SDS gels. Proteins were then transferred to polyvinylidene difluoride (PVDF) membranes with a semi-dry electroblotting apparatus. […]

[2] = system: BC cell; conditions: ref (7); cited from earlier work
[3] = system: BR293 cells; assay: Cell proliferation assay (cell counting); type: cell-based, human; conditions: for effect on proliferation over 48 hours: PD 153035 100 nM, PD 168393 2 μM
Protocol: (§5) Equal numbers of BR293 and MDA-MB-468 cells were seeded in MEM containing 10% FCS into 10 cm dishes. […]. For the 48 time points, fresh medium containing the appropriate inhibitor was applied to the cells after 24 hours. Controls were allowed to grow for 48 hours in the absence of inhibitor. Thereafter, all the cells were washed twice with ice cold PBS, harvested and counted under a phase-contrast microscope. Values are expressed as averages+S.D. (n=3).
(§6) Equal numbers of BR293, MCF-10F, MCF-7, MDA-MB-468, HKEK293 and COS1 cells were seeded in the appropriate growth medium into 10 cm dishes. Cells were allowed to grow in the presence of various concentrations of OdDHL or OHHL for 24 or 48 hours. For the 48-hour time points, fresh medium containing the appropriate inhibitor was applied to the cells after 24 hours. Controls were allowed to grow for 48 hours in the absence of inhibitor. Thereafter, all the cells were washed twice with ice cold PBS, harvested and counted under a phase-contrast microscope. Values are expressed as averages ±S.D. (n=3).

[4] = system: MDA-MB-468 cells; assay: Cell proliferation assay (cell counting); type: cell-based, human; conditions: for effect on proliferation over 48 hours: PD 153035 100 nM, PD 168393 2 μM
Protocol: as §5, §6

[5] = system: MCF-10F cells; conditions: previously shown (refs 5, 11); cited from earlier work
[6] = system: STAT3; assay: Weak constitutive STAT3 DNA-binding in serum-starved cells (EMSA supershift); type: cell-based, human
[7] = system: STAT3; assay: STAT3 activation by conditioned medium (CM) from serum-stimulated BR293 cells; type: cell-based, human; conditions: serum-starved BR293 cells treated with AG490
Protocol: OdDHL blocks the autocrine release of mitogens from BC cells (a) Equal numbers of BR293 cells were cultured in MEM alone, serum-free MEM conditioned by serum-stimulated BR293 cells for 2 hours, or the same supplemented with 5% FCS, as indicated. After 24 hours [^3H]-thymidine was added to the medium. After a further 18 hours, cells were harvested and analysed for incorporation of ^3H. Error bars denote SD (n=4). (b) BR293 cells were serum-starved (lane 1) or starved and stimulated with 10% FCS for 2 hours directly (lane 2) or after pretreatment with α-amanitin (1004/ml) for 2.5 hours (lane 3) or actinomycin D ([…]) for 10 min (lane 4). […] Cell lysates were prepared and analysed by Western blotting as described in the legend to FIG. 1a. […] Lysates were prepared from all the cells and analysed by Western blotting as described in the legend to FIG. 1a.
Serum-starved BR293 cells were stimulated with 10% foetal calf serum (FCS) and, after 2 hours, half the cells were harvested while the other cells were washed thoroughly and incubated for a further 4 hours in serum-free medium. […] Nuclear extracts were made from all the cells and analysed for STAT DNA-binding. […]

[8] = system: STAT3; assay: Serum-induced STAT3 tyrosine phosphorylation (immunoblot); type: cell-based, human; conditions: BR293 cells; full medium, 2 hour time course; AG490 pre-treatment
Protocol: as §1, §2, §3
Samples were separated by electrophoresis through 6% polyacrylamide-SDS gels. Proteins were then transferred to polyvinylidene difluoride (PVDF) membranes with a semi-dry electroblotting apparatus. The membranes were incubated with appropriate primary antibodies at room temperature for 1 hour or 4° C. overnight according to suppliers' instructions, washed and stained with horseradish peroxidase-coupled secondary antibodies. The membranes were developed with an enhanced chemiluminescence kit (Amersham).
as §1, with “Na3VO4,” for “Na3 VO4,”, “aprotinin and” for “aprotinin,”, “use. AG490 was purchased from Sigma; PD153035 was provided by Glaxo-Smith-Kline and PD168393 was purchased from Calbiochem.” for “use.”
as §3, with “Equal amounts of lysates were incubated with the appropriate antibody for 2 hours at 4° C. Immune” for “Immune”, “in 10” for “in 100”, “mM Tris-HCl” for “mM Tris-HC1”, “100 mM” for “100 nM”

[9] = system: ErbB3; assay: Tyrosine phosphorylation of ErbB3: immunoprecipitation and anti-phosphotyrosine immunoblot; type: cell-based, human
Protocol: as §1, §2, §3, §4

[10] = system: ErbB2; assay: Tyrosine phosphorylation of ErbB2: immunoprecipitation and anti-phosphotyrosine immunoblot; type: cell-based, human; conditions: EGF
Protocol: as §1, §2, §3, §4

T1 sequence (O60674 whole entry): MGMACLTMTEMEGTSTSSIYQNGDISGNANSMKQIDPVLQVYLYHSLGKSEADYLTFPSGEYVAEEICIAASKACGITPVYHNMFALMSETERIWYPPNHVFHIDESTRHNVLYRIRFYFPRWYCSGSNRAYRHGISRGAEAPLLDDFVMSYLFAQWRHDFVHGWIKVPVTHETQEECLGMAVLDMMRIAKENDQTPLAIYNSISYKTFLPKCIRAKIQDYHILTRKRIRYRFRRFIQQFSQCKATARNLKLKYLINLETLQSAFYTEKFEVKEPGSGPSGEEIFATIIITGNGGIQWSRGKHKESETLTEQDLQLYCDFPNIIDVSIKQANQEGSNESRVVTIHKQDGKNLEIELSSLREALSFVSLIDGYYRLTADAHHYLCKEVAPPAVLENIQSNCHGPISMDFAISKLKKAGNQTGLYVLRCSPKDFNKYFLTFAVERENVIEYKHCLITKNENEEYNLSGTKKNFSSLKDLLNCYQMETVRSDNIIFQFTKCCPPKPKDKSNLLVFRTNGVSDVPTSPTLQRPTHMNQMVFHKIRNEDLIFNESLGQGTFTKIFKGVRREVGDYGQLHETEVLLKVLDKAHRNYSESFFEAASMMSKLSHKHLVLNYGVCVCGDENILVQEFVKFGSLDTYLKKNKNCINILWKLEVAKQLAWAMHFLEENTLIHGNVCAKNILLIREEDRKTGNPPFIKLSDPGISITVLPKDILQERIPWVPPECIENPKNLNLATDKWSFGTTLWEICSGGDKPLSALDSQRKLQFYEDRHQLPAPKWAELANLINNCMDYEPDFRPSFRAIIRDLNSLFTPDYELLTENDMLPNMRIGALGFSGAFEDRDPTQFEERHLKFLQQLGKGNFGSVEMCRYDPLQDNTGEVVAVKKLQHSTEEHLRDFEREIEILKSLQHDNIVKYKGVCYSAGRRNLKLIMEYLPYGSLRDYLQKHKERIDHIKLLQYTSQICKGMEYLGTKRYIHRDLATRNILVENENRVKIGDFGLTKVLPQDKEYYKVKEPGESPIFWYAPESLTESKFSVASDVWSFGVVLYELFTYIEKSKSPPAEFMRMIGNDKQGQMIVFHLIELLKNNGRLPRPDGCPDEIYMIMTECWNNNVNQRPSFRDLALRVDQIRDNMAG

Compound: N#C/C(=C/c1ccc(O)c(O)c1)C(=O)NCc1ccccc1 [AG490]
- serum-stimulated tyrosine phosphorylation of JAK2 [1]: blocked
- BC cell proliferation [2]: inhibits BC cell proliferation
- reduction of cell proliferation ([3]; AG490 100 μM, over 48 hours): > 75%
- reduction of cell proliferation ([4]; AG490 100 μM, over 48 hours): > 75%
- sensitivity to JAK inhibitor [5]: insensitive
- weak STAT3 DNA-binding ([6]; BT20 and MDA-MB-468 cells, 100 μM): unaffected
- STAT3 activation by conditioned medium from BR293 cells [7]: no inhibition was observed
- serum-stimulated STAT3 tyrosine phosphorylation [8]: blocked

Compound: COc1cc2ncnc(Nc3cccc(Br)c3)c2cc1OC [PD 153035]
- effect on proliferation over 48 hours [3]: no effect on their proliferation
- effect on proliferation over 48 hours [4]: no effect on their proliferation
- weak, heterogeneous DNA-binding by STAT3 in extracts from serum-starved cells ([6]; MDA-MB-468 cells, 100 nM): had no effect

Compound: C=CC(=O)Nc1ccc2ncnc(Nc3cccc(Br)c3)c2c1 [PD 168393]
- effect on proliferation over 48 hours [3]: no effect on their proliferation
- effect on proliferation over 48 hours [4]: no effect on their proliferation

Compound: EGF: Epidermal Growth Factor, used as stimulus
- induction of ErbB3 tyrosine phosphorylation ([9]; cell line co-expressing ErbB1, first value printed (cell line not given)): 6.6 fold
- induction of ErbB3 tyrosine phosphorylation ([9]; cell line co-expressing ErbB1, second value printed (cell line not given)): 6.3 fold
- stimulation of ErbB2 tyrosine phosphorylation ([10]; BR293 cells): 3.2 fold
- stimulation of ErbB2 tyrosine phosphorylation ([10]; T47D cells): 5.7 fold
